This experiment deals with human Factor XIa (Homo sapiens, UniProt P03951). Briefly: Factor XIa enzyme inhibition assay (dose response, fluorogenic AMC substrate). Format: biochemical. Set-up: Enzyme: Factor XIa. The following applies: purified enzyme; substrate 50 μM, enzyme 0.25 nM; read-out: hFXIa IC50. As to the method: • Assay buffer: 20 mM Hepes, pH 7.4; 150 mM NaCl; 0.02% Tween 20 • Compounds: 10 mM stocks in DMSO • Substrate: 20 mM Glp-Pro-Arg-AMC, 25 mg/2.3 mL H2O (store at +4° C.) [Factor XIa, thrombin, and trypsin] • 20 mM Pro-Phe-Arg-AMC (Bachem I-1295), 25 mg/2.2 mL H2O or Boc-Leu-Gly-Arg-AMC (Bachem I-1105), 25 mg/2.07 mL H2O (store at +4° C.) [Factor Xa] • Enzyme: Factor XIa; 0.25 M in 50% glycerol (20 μg/mL) • Trypsin; 0.2 μM in 50% glycerol (4.8 μg/mL) • Thrombin; 0.2 μM in 50% glycerol (7.34 μg/mL) • Factor Xa; 0.2 μM in 50% glycerol (9.2 μg/mL)
Chain of human Factor XIa (P03951 388-625 limits assumed): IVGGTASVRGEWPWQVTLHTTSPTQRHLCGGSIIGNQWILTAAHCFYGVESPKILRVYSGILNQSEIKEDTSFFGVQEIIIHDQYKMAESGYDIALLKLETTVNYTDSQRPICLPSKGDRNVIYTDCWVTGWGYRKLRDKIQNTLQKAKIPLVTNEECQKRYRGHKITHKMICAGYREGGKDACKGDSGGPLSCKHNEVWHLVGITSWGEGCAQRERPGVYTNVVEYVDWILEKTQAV
Chain of human Factor XIa (P03951 19-387 partner limits assumed): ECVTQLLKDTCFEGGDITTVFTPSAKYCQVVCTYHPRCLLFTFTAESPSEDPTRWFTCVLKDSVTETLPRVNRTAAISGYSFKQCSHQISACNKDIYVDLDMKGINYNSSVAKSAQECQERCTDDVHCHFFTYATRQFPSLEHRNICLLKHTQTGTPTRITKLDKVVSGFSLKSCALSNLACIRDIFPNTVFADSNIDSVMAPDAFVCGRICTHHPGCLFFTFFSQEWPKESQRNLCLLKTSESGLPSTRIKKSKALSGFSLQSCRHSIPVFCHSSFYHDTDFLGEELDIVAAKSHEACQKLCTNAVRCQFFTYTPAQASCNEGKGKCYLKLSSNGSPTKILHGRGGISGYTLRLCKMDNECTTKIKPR
• 1. Dilute the substrate to 100 μM in assay buffer (30 μL/6 mL). The enzyme is diluted to 0.5 nM just prior to use (12 L/6 mL for Factor XIa; 15 μL/6 mL for all of the rest.) • 2. Pipette 50 μL of substrate into each well of the 96 well (12×8) microtiter plate. (Column 1 is used as the 100% activity control and receives no compound, and Column 12 is the blank and receives no enzyme.) Add an additional 46 μL to column 2. • 3. Pipette 4 μL of each compound into the appropriate well in column 2 of the plate (unknowns assayed in triplicate, standard assayed in duplicate). The final compound concentration will be 1/50th of the stock. • 4. Serially two-fold dilute the compound by mixing the sample in column 2, removing 50 μL to the next well (column 3), mix and remove to column 4, etc. until column 11. After mixing column 11, remove 50 μL and discard. • 5. Pipette 50 μL of buffer into column 12. Initiate the reaction by adding 50 μL of enzyme solution to each well of columns 1-11 as rapidly as possible. • 6. Read the plate in a spectrophotometer (SpectraMax) at 30° C., wherein each well is measured every 60 s for 30 min. For Factor Xa assays, each well is measured every 1 min for a total of 60 min. • 7. For Factor XIa assays, the compounds are assayed, in duplicate, at 3 different starting concentrations, 20, 2, and 0.2 μM; 1:10, 1:100, and 1:1000 dilution of 10 mM stock or at 2, 0.2, and 0.02 μM; 1:100, 1:1000, and 1:10,000 dilution of 10 mM stock. Data for each concentration are combined for graphing and data fitting. • 8. Data can be used both for estimation of IC50 and for estimation of Kon.
Potential inhibitors of Factor XIa were evaluated using the following assay.
PyroGlu-Pro-Arg-7-methylaminocourin (AMC), available from CPC Scientific, Inc., is based on the substrate pyro-Glu-Pro-Arg-pNA (S-2366), available from Diapharma Group, Inc. (Columbus, Ohio), wherein the p-nitroanaline group is replaced with 7-methylaminocoumarin (AMC).
The final concentration of the substrate in the assay was 50 μM, and the final concentration of the enzyme was 0.25 nM. Inhibitors were tested by serial dilution over an appropriate range to yield a dose response curve for determination of the inhibitors' IC50 value. The assay mixture was read every minute for 30 minutes in order to generate progress curves. The plates were read in a Spectramax m5 Multimode Plate Reader (Molecular Devices LLC, Sunnyvale, Calif.). Dose response curves were fit to Equation 1 below in which A is the maximum inhibition, B is the minimum inhibition, C is the IC50, and D is the Hill coefficient.
Y=[(A−B)/(1+(X/C)^D)]+B (Equation 1)

Each structure is given as a SMILES string.

`CC[C@@H](NC(=O)N1C(=O)[C@H](Cc2ccnc(N)c2)[C@H]1C(=O)N(C)c1ccncc1)c1ccccc1F` [Compound 108]: the IC50 is less than 10 nM.

For the compound `Nc1cc(C[C@H]2C(=O)N(C(=O)N[C@@H](C3CCCCC3)C(F)(F)F)[C@@H]2C(=O)NC2CC2)ccn1` [Compound 1], the IC50 is 10 to 100 nM. With `CN(C(=O)[C@@H]1[C@@H](Cc2ccnc(N)c2)C(=O)N1C(=O)NCc1cccc(Cl)c1)c1ccncc1` [Compound 138], the 50% inhibitory concentration (IC50) was less than 10 nM. Regarding `Nc1cc(C[C@H]2C(=O)N(C(=O)N[C@@H](C3CCCCC3)C(F)(F)F)[C@@H]2C(=O)N2CCCc3ccccc32)ccn1` [Compound 76], the IC50 was in the range of 10 to 100 nM.

With `CC[C@@H](NC(=O)N1C(=O)[C@H](Cc2cc(C)nc(N)c2)[C@H]1C(=O)N(C)c1ccncc1)c1ccccc1` [Compound 122], the IC50 was less than 10 nM. For the compound `CC[C@@H](NC(=O)N1C(=O)[C@H](Cc2ccnc(N(C)C)c2)[C@H]1C(=O)N(C)c1ccncc1)c1cccc(Cl)c1` [Compound 140], the IC50 was 100 to 1000 nM. The same measure for `CCN(C(=O)[C@@H]1[C@@H](Cc2ccnc(N)c2)C(=O)N1C(=O)N[C@@H](C1CCCCC1)C(F)(F)F)c1ccncc1` [Compound 33]: less than 10 nM; for `CC[C@@H](NC(=O)N1C(=O)[C@H](Cc2cc(C)nc(N)c2)[C@H]1C(=O)N(C)c1ccncc1)C1CCCCC1` [Compound 114]: less than 10 nM. Regarding `CC[C@@H](NC(=O)N1C(=O)[C@H](Cc2ccnc(N)c2)[C@H]1C(=O)N(C)c1ccncc1)c1cc(F)ccc1F` [Compound 110], the IC50 was less than 10 nM. Consider `CC[C@@H](NC(=O)N1C(=O)[C@H](Cc2cc(C)nc(N)c2)[C@H]1C(=O)N(C)c1ccncc1)c1cccc(Cl)c1` [Compound 111], for which the IC50 is less than 10 nM. In the case of `Nc1cc(C[C@H]2C(=O)N(C(=O)N[C@@H](C3CCCCC3)C(F)(F)F)[C@@H]2C(=O)Nc2ccc(Cl)cc2)ccn1` [Example 9] it was 100 to 1000 nM; in that of `Cc1cccc(N(C)C(=O)[C@@H]2[C@@H](Cc3ccnc(N)c3)C(=O)N2C(=O)N[C@@H](C2CCCCC2)C(F)(F)F)c1` [Compound 14], 10 to 100 nM; in that of `CC[C@@H](NC(=O)N1C(=O)[C@H](Cc2ccncc2)[C@H]1C(=O)N(C)c1ccccc1)C1CCCCC1` [Compound 62], 100 to 1000 nM. With `CC[C@@H](NC(=O)N1C(=O)[C@H](Cc2ccnc(N)c2)[C@H]1C(=O)N(C)c1ccncc1)c1cccc(OC(F)(F)F)c1` [Compound 106], the IC50 lay within 10 to 100 nM. With `CC[C@@H](NC(=O)N1C(=O)[C@H](Cc2ccnc(N(C)C)c2)[C@H]1C(=O)N(C)c1ccncc1)c1ccccc1Cl` [Compound 139], the IC50 fell in the range of 100 to 1000 nM.

`CC[C@@H](NC(=O)N1C(=O)[C@H](Cc2cc(C)nc(N)c2)[C@H]1C(=O)N(C)c1ccccc1)c1ccc(C)nc1` [Compound 132]: the concentration for half-maximal inhibition (IC50) lay within 10 to 100 nM. In the case of `CN(C(=O)[C@@H]1[C@@H](Cc2ccnc(N)c2)C(=O)N1C(=O)N[C@@H](C1CCCCC1)C(F)(F)F)c1ccncn1` [Compound 20] it was less than 10 nM. The same measure for `CC[C@@H](NC(=O)N1C(=O)[C@H](Cc2cc(N)ncc2C)[C@H]1C(=O)N(C)c1ccncc1)C1CCCCC1` [Compound 92]: 10 to 100 nM; for `CN(C(=O)[C@@H]1[C@@H](Cc2ccnc(N)c2)C(=O)N1C(=O)N[C@@H](c1cccnc1)C1CC1)c1ccccc1` [Compound 58]: 10 to 100 nM.

Consider `CC[C@@H](NC(=O)N1C(=O)[C@H](Cc2ccnc(N)c2)[C@H]1C(=O)N(C)c1ccccc1)c1ccc(F)c(F)c1` [Compound 48], for which the IC50 lay within 100 to 1000 nM. In the case of `CC[C@@H](NC(=O)N1C(=O)[C@H](Cc2ccncc2)[C@H]1C(=O)N(C)c1ccccc1)c1cccnc1` [Compound 66] it was 100 to 1000 nM. The same measure for `CCC[C@@H](NC(=O)N1C(=O)[C@H](Cc2ccnc(N)c2)[C@H]1C(=O)N(C)c1ccccc1)c1cccnc1` [Compound 68]: 10 to 100 nM; for `CCNC(=O)[C@@H]1[C@@H](Cc2ccnc(N)c2)C(=O)N1C(=O)N[C@@H](c1ccccc1)C(F)(F)F` [Compound 2]: 10 to 100 nM.
